This note sets out measurements from ChEMBL document CHEMBL1201862, “PubChem BioAssay data set” (2004).

Calls of active or inactive are those of the source. A value given as a limit tells only on which side of the number the result lay.

Test [1] deals with T1, Serine/threonine-protein phosphatase (Candida dubliniensis (strain CD36 / CBS 7987 / NCPF 3949 / NRRLY-17841) (Yeast), UniProt B9W6M3).
T1 sequence (B9W6M3 whole entry): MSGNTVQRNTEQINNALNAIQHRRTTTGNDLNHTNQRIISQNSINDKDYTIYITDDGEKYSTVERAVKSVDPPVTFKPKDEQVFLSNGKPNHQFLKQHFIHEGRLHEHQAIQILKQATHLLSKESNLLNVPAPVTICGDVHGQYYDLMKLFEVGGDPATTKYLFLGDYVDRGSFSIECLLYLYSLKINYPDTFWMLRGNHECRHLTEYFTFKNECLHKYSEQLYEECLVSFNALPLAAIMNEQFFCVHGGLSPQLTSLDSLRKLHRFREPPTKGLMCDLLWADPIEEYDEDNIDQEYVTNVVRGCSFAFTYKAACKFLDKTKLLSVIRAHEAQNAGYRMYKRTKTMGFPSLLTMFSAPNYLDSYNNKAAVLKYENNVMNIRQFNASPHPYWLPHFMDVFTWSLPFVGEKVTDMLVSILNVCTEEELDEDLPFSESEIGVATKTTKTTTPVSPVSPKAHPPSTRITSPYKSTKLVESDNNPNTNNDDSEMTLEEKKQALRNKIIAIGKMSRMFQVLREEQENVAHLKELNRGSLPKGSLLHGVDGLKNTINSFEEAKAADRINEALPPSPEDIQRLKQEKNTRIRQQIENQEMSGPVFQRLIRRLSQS
Briefly: calcineurin pathway inhibitors in yeast reporter, dose response, S. cerevisiae, CDRE-lacZ, luminescence, secondary (AID 2388).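 Note: yeast reporter cells carrying a calcineurin-responsive lacZ construct stimulated with calcium chloride; luminescent beta-galactosidase reporter signal in whole cells rather than isolated phosphatase activity; potency for inhibition where a drop in reporter signal means calcineurin blockade.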 It is filed as functional, cell-based.

Test [2] can be described thus: growth suppression of PTEN-null colon cells, dose response, cell-based, HCT116 PTEN knockout (AID 1047).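 Note: HCT116 colon tumor cells with PTEN knocked out; cells exposed to compound for 60 hours before readout; potency for loss of cell viability measured by luminescence.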 It is filed as functional.
Test [3] deals with T2, Caspase-3 (Homo sapiens, UniProt P42574).
T2 sequence (P42574 whole entry): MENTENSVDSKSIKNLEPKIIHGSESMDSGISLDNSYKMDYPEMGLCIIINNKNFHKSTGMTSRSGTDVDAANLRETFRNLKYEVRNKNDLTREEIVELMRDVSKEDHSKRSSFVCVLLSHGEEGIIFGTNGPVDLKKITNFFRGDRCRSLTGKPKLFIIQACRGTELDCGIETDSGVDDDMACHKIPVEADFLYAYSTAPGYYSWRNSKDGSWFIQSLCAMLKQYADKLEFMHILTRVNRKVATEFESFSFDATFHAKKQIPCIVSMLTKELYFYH
In kind it is functional.

The target of test [4] is T3, Apoptotic protease-activating factor 1 (Homo sapiens, UniProt O14727).
T3 sequence (O14727 whole entry): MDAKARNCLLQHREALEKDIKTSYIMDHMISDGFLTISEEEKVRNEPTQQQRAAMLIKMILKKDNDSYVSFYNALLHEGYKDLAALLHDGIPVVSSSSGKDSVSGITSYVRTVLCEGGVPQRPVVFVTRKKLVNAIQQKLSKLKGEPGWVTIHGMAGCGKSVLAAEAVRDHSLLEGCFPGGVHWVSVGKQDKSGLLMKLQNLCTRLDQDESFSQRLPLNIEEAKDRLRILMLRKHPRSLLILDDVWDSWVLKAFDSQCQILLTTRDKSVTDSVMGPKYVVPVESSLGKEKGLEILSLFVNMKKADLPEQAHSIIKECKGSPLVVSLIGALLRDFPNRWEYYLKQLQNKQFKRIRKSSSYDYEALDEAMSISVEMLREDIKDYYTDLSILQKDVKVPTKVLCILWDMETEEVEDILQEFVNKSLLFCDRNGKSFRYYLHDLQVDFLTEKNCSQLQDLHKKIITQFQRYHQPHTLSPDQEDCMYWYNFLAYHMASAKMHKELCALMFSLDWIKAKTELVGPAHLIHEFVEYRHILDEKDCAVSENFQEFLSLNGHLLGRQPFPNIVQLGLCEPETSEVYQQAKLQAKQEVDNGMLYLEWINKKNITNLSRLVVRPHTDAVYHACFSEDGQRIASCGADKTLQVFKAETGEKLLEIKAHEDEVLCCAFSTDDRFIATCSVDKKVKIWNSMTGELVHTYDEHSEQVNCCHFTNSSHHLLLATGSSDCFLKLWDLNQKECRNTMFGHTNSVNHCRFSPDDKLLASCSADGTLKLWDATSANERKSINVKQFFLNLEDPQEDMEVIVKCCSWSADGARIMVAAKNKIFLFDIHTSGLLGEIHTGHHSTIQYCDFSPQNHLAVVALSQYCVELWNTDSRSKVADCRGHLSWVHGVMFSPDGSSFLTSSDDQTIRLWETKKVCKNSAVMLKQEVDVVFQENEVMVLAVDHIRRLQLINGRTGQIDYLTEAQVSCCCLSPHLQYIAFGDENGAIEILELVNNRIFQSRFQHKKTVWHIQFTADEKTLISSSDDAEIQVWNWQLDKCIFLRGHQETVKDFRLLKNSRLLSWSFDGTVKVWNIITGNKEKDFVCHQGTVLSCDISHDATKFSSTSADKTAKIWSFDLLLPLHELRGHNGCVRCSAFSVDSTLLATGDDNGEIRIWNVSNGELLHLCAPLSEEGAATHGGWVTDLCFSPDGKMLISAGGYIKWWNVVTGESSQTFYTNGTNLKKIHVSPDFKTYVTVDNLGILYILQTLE
It is filed as functional.

For test [5], the system named is Streptococcus sp. 'group A'. The experiment in a line: growth inhibition of control SK(-) GAS strain, dose response, counter-screen for streptokinase expression inhibitor project, luminescence, kanamycin, BacTiterGlo, confirmation (AID 1900). In kind it is functional, organism-based. A general note: Counterscreens check selectivity or assay interference.
Test [6] concerns the target T4, Zinc finger protein mex-5 (Caenorhabditis elegans, UniProt Q9XUB2).
T4 sequence (Q9XUB2 whole entry): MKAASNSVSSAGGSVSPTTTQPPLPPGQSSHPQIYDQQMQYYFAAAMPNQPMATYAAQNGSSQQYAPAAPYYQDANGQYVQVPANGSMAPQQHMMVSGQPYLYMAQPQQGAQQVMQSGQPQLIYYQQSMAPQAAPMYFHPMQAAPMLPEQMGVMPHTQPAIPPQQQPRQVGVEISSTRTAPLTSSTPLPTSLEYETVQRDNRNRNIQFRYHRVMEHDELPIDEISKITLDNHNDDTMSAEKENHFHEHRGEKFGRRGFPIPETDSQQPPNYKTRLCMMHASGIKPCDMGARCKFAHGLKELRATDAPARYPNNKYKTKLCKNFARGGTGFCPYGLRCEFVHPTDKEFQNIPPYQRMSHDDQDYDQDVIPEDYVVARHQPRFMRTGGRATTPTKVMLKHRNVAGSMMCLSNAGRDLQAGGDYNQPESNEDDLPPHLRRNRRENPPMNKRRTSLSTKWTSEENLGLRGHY
The experiment in a line: MEX-5/TCR-2 RNA interaction inhibitors, dose response, biochemical, C. elegans, fluorescence polarization (AID 1960).

Test [7] addresses Serine/threonine-protein phosphatase PP1-alpha catalytic subunit (Homo sapiens, UniProt P62136). The experiment in a line: PP1 phosphatase inhibitors, dose response, biochemical, fluorescence (AID 2394).
Test [8] concerns the target Serine/threonine-protein phosphatase (Homo sapiens, UniProt Q9BPW0). The experiment in a line: PP5 phosphatase inhibitors, dose response, biochemical, fluorescence (AID 2395).

Serine/threonine-protein phosphatase PP1-alpha catalytic subunit, sequence (P62136 whole entry): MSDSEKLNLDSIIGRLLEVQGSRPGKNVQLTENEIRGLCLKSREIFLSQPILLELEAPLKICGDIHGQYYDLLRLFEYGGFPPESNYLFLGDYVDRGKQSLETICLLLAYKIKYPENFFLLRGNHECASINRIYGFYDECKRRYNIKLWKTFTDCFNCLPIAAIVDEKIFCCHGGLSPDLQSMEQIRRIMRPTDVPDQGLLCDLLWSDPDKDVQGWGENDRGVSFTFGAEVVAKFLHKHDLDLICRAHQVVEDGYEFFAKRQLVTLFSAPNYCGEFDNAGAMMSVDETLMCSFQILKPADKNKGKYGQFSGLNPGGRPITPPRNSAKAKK
Serine/threonine-protein phosphatase (Homo sapiens, UniProt Q9BPW0), sequence (Q9BPW0 whole entry): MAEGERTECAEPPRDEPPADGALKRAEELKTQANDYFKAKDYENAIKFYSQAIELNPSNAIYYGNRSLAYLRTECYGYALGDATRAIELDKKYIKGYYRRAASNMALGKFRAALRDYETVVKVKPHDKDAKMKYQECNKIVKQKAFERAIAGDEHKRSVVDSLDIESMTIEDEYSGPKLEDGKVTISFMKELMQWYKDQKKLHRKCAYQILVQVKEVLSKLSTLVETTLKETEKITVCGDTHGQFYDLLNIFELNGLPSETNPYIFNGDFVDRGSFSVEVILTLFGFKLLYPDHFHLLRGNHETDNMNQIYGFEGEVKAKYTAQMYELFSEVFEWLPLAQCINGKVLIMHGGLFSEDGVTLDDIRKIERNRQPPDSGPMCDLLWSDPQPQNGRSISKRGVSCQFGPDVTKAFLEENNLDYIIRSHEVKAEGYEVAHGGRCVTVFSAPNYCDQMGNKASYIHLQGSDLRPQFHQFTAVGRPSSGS

What is called EC50 is the concentration that produces a half-maximal response. As a reminder, the IC50 is the midpoint of a concentration-inhibition curve. On to `Cc1ccc(NC2=CC(=O)C(=O)c3ccccc32)cc1`, for which the EC50 was > 180 µM (inactive) in test [1] and 6.79 µM (active) in test [2]. Also, the IC50 in test [3] is 31 µM (active).
With `O=C(O)c1ccc(S(=O)(=O)/N=C2\C=C(Nc3ccccc3F)C(=O)c3ccccc32)cc1`, the IC50 was 3 µM (active) in test [4], 15.5 µM (not active) in test [7] and > 67 µM (not active) in test [8]. For the same molecule, the EC50 was 5.74 µM (active) in test [5] and 60.8 µM (active) in test [6].
